Test results reported in patent publication US20250154171A1, “RAS INHIBITORS” (Revolution Medicines, Inc., priority 2023, published 2025).
Like-named read-outs stand apart in the source and are kept apart here. Blank lines part the entries; values can stand above or below the molecule they belong to.

What was measured:
[1] = system: K-RasG12V (Capan-1); test: Potency assay: cellular pERK (AlphaLISA SureFire or In-Cell Western), Capan-1; type: cell-based; conditions: Homo sapiens; Capan-1 cells; 4 hours; in at least one of the assays (AlphaLISA or In-Cell Western); read-out: pERK IC50 with respect to K-RasG12V (Capan-1)
Excerpt: The purpose of this assay is to measure the ability of test compounds to inhibit K-Ras in cells. Activated K-Ras induces increased phosphorylation of ERK at Threonine 202 and Tyrosine 204 (PERK). This procedure measures a decrease in cellular pERK in response to test compounds. The procedure described below in Capan-1 cells is applicable to K-RasG12V.
Note: This protocol may be executed substituting other cell lines to characterize inhibitors of other RAS variants, including, for example, NCI-H358 (K-Ras G12C), AsPC-1 (K-Ras G12D), Capan-1 (K-Ras G12V), or NCI-H1355 (K-Ras G13C).
Cells are grown and maintained using media and procedures recommended by the ATCC. On the day prior to compound addition, cells are plated in 384-well cell culture plates (40 μl/well) and grown overnight in a 37° C., 5% CO2 incubator. Test compounds are prepared in 10, 3-fold dilutions in DMSO, with a high concentration of 10 mM. On the day of assay, 40 nL of test compound is added to each well of cell culture plate using an Echo550 liquid handler (LabCyte®). Concentrations of test compound are tested in duplicate. After compound addition, cells are incubated 4 hours at 37° C., 5% CO2. Following incubation, culture medium is removed, and cells are washed once with phosphate buffered saline.
In some experiments, cellular pERK level is determined using the AlphaLISA SureFire Ultra p-ERK1/2 Assay Kit (PerkinElmer). Cells are lysed in 25 μL lysis buffer, with shaking at 600 RPM at room temperature. Lysate (10 μL) is transferred to a 384-well Opti-plate (PerkinElmer) and 5 μL acceptor mix is added. After a 2-hour incubation in the dark, 5 μL donor mix is added, plate is sealed, and incubated 2 hours at room temperature. Signal is read on an Envision plate reader (PerkinElmer) using standard AlphaLISA settings. Analysis of raw data is carried out in Excel (Microsoft) and Prism (GraphPad). Signal is plotted vs. the decadal logarithm of compound concentration, and IC50 is determined by fitting a 4-parameter sigmoidal concentration response model.
In other experiments, cellular pERK is determined by In-Cell Western. Following compound treatment, cells are washed twice with 200 μL tris buffered saline (TBS) and fixed for 15 minutes with 150 μL 4% paraformaldehyde in TBS. Fixed cells are washed 4 times for 5 minutes with TBS containing 0.1% Triton X-100 (TBST) and then blocked with 100 μL Odyssey blocking buffer (LI-COR) for 60 minutes at room temperature. Primary antibody (PERK, CST-4370, Cell Signaling Technology) is diluted 1:200 in blocking buffer, and 50 μL is added to each well and incubated overnight at 4° C. Cells are washed 4 times for 5 minutes with TBST. Secondary antibody (IR-800CW rabbit, LI-COR, diluted 1:800) and DNA stain DRAQ5 (LI-COR, diluted 1:2000) are added and incubated 1-2 hours at room temperature. Cells are washed 4 times for 5 minutes with TBST. Plates are scanned on a Li—COR Odyssey CLx Imager. Analysis of raw data is carried out in Excel (Microsoft) and Prism (GraphPad). Signal is plotted vs. the decadal logarithm of compound concentration, and IC50 is determined by fitting a 4-parameter sigmoidal concentration response model.

Molecule: CO[C@@H](C)c1ncc(N2CCN(C3CC3)CC2)cc1-c1c2c3cc(ccc3n1CCOC1CCOCC1)-c1csc(n1)[C@@H](N1CC3(COC3)C1)[C@H](NC(=O)OC(C)(C)C)C(=O)N1CCC[C@H](N1)C(=O)OCC(C)(C)C2
ring closure, isolated yield (from CO[C@@H](C)c1ncc(N2CCN(C3CC3)CC2)cc1-c1c(CC(C)(C)CO)c2cc(-c3csc([C@H]([C@H](NC(=O)OC(C)(C)C)C(=O)N4CCC[C@@H](C(=O)O)N4)N4CC5(COC5)C4)n3)ccc2n1CCOC1CCOCC1, ester bond, 18-membered ring, EDCI/HOBt/DIEA, CH2Cl2, 9.35 mM, 25.0 °C): 27.3%

Molecule: CO[C@@H](C)c1ncc([C@@H]2CCN(C3CC3)C2)cc1-c1c2c3cc(ccc3n1CCOC1CCOCC1)-c1csc(n1)[C@@H](N1CC(C)(OC)C1)[C@H](NC(=O)OC(C)(C)C)C(=O)N1CCC[C@H](N1)C(=O)OCC(C)(C)C2
ring closure, isolated yield (from CO[C@@H](C)c1ncc([C@@H]2CCN(C3CC3)C2)cc1-c1c(CC(C)(C)CO)c2cc(-c3csc([C@H]([C@H](NC(=O)OC(C)(C)C)C(=O)N4CCC[C@@H](C(=O)O)N4)N4CC(C)(OC)C4)n3)ccc2n1CCOC1CCOCC1, ester bond, 18-membered ring, EDCI/HOBt/DIEA, CH2Cl2, 9.4 mM, 25.0 °C, 16.0 h): 43.6%

Molecule: CO[C@@H](C)c1ncc(N2CCN(C(=O)OCc3ccccc3)CC2)cc1-c1c2c3cc(ccc3n1CCO[C@H]1CCOC(C)(C)C1)-c1nc(co1)[C@@H](N1CCCC1)[C@H](NC(=O)OC(C)(C)C)C(=O)N1N[C@H](C(=O)OCC(C)(C)C2)C2CC1C2
ring closure, isolated yield (from CO[C@@H](C)c1ncc(N2CCN(C(=O)OCc3ccccc3)CC2)cc1-c1c(CC(C)(C)COC(=O)[C@H]2NN(C(=O)[C@@H](NC(=O)OC(C)(C)C)[C@@H](c3coc(Br)n3)N3CCCC3)C3CC2C3)c2cc(B3OC(C)(C)C(C)(C)O3)ccc2n1CCO[C@H]1CCOC(C)(C)C1, cc_pd bond, 18-membered ring, Pd(DtBPF)Cl2/K3PO4, toluene/dioxane/H2O, 15.9 mM, 80.0 °C, 2.0 h): 24%

IC50 [1]: < 650 nM
Molecule: CO[C@@H](C)c1ncc(N2CCN(C3CC3)CC2)cc1-c1c2c3cc(ccc3n1CCOC1CCOCC1)-c1csc(n1)[C@@H](N1CC3(COC3)C1)[C@H](NC(=O)[C@@H]1[C@@H](C)[C@H]1C(=O)N1CCN(C)CC1)C(=O)N1CCC[C@H](N1)C(=O)OCC(C)(C)C2 (atropisomer, axis not shown) [Example A1083]

IC50 [1]: < 650 nM
Molecule: CO[C@@H](C)c1ncccc1-c1c2c3cc(ccc3n1[C@H]1C[C@@H](C#N)C1)-c1csc(n1)[C@@H](N1CC3(CCCN3C)C1)[C@H](NC(=O)[C@H]1[C@H](C)[C@@H]1C)C(=O)N1CCC[C@H](N1)C(=O)OCC(C)(C)C2 (atropisomer, axis not shown) [Example A983]

Molecule: tert-butyl ((6^3S,3R,4S)-1^2-(5-(4-cyclopropylpiperazin-1-yl)-2-((S)-1-methoxyethyl)pyridin-3-yl)-3-ethoxy-10,10-dimethyl-5,7-dioxo-1^1-(2-((tetrahydro-2H-pyran-4-yl)oxy)ethyl)-6^1,6^2,6^3,6^4,6^5,6^6-hexahydro-1^1H-8-oxa-2 (5,2)-oxazola-1(5,3)-indola-6(1,3)-pyridazinacycloundecaphane-4-yl) carbamate
ring closure, isolated yield (cc_pd bond, 18-membered ring, XPhos Pd G3/XPhos/K3PO4, toluene/dioxane/H2O, 53.0 mM, 80.0 °C): 16.3%

IC50 [1]: < 650 nM
Molecule: CO[C@@H](C)c1ncccc1-c1c2c3cc(ccc3n1[C@H]1C[C@@H](C#N)C1)-c1csc(n1)[C@@H](N1CC3(CCCN3)C1)[C@H](NC(=O)[C@H]1[C@H](C)[C@@H]1C)C(=O)N1CCC[C@H](N1)C(=O)OCC(C)(C)C2 (atropisomer, axis not shown) [Example A1168]

Molecule: CO[C@@H](C)c1ncccc1-c1c2c3cc(ccc3n1CCO[C@H]1CCOC(C)(C)C1)-c1coc(n1)C[C@H](NC(=O)OC(C)(C)C)C(=O)N1N[C@H](C(=O)OCC(C)(C)C2)C2CC1C2
ring closure, isolated yield (from CO[C@@H](C)c1ncccc1-c1c(CC(C)(C)CO)c2cc(-c3coc(C[C@H](NC(=O)OC(C)(C)C)C(=O)N4N[C@H](C(=O)O)C5CC4C5)n3)ccc2n1CCO[C@H]1CCOC(C)(C)C1, ester bond, 18-membered ring, EDCI/HOBt/DIEA, MeCN, 11.5 mM, 35.0 °C, 2.0 h): 30.6%

Molecule: C[C@@H]1OC[C@H](C)OCCn2c(c(CC(C)(C)CO[Si](c3ccccc3)(c3ccccc3)C(C)(C)C)c3cc(Br)ccc32)-c2cccnc21
ring closure, isolated yield (from C[C@H](OC[C@H](C)OCCBr)c1ncccc1-c1[nH]c2ccc(Br)cc2c1CC(C)(C)CO[Si](c1ccccc1)(c1ccccc1)C(C)(C)C, amine bond, 11-membered ring, Cs2CO3, DMF, 119.0 mM, 60.0 °C, 1.0 h): 76.9%

IC50 [1]: < 650 nM
Molecule: CO[C@@H](C)c1ncccc1-c1c2c3cc(ccc3n1C1CN(C3CC3)C1)-c1csc(n1)[C@@H](N1CC3(CCN3C3COC3)C1)[C@H](NC(=O)[C@@H]1[C@@H](C)[C@H]1c1ccncn1)C(=O)N1CCC[C@H](N1)C(=O)OCC(C)(C)C2 (atropisomer, axis not shown) [Example A1076]

Molecule: CO[C@@H](C)c1ncc(N2CCN(C3CC3)CC2)cc1-c1c2c3cc(ccc3n1CCOC1CCOCC1)-c1csc(n1)[C@@H](N1CCCC1)[C@H](NC(=O)OC(C)(C)C)C(=O)N1CCC[C@H](N1)C(=O)OCC(C)(C)C2
ring closure, isolated yield (from CO[C@@H](C)c1ncc(N2CCN(C3CC3)CC2)cc1-c1c(CC(C)(C)CO)c2cc(-c3csc([C@H]([C@H](NC(=O)OC(C)(C)C)C(=O)N4CCC[C@@H](C(=O)O)N4)N4CCCC4)n3)ccc2n1CCOC1CCOCC1, ester bond, 18-membered ring, EDCI/HOBt/DIEA, CH2Cl2, 9.59 mM, 25.0 °C): 54.7%

IC50 [1]: < 650 nM
Molecule: CO[C@@H](C)c1ncccc1-c1c2c3cc(ccc3n1C1CN(C3CC3)C1)-c1coc(n1)[C@@H](N1CCN(C)CC1)[C@H](NC(=O)[C@@H]1[C@@H](C)[C@H]1c1ccncn1)C(=O)N1CCC[C@H](N1)C(=O)OCC(C)(C)C2 (atropisomer, axis not shown) [Example A1104]

IC50 [1]: < 650 nM
Molecule: CO[C@@H](C)c1ncccc1-c1c2c3cc(ccc3n1C1CN(C3CC3)C1)-c1csc(n1)[C@@H](N1CC3(CCN3C)C1)[C@H](NC(=O)[C@H]1[C@H](C)[C@@H]1C)C(=O)N1CCC[C@H](N1)C(=O)OCC(C)(C)C2 (atropisomer, axis not shown) [Example A1191]

Molecule: CO[C@@H](C)c1ncc(N2CCN(C3CC3)CC2)cc1-c1c2c3cc(ccc3n1CCO[C@H]1CCOC(C)(C)C1)-c1coc(n1)[C@@H](N1CC3(COC3)C1)[C@H](NC(=O)OC(C)(C)C)C(=O)N1CC3CC(C3)(N1)C(=O)OCC(C)(C)C2
ring closure, isolated yield (from CO[C@@H](C)c1ncc(N2CCN(C3CC3)CC2)cc1-c1c(CC(C)(C)CO)c2cc(-c3coc([C@H]([C@H](NC(=O)OC(C)(C)C)C(=O)N4CC5CC(C(=O)O)(C5)N4)N4CC5(COC5)C4)n3)ccc2n1CCO[C@H]1CCOC(C)(C)C1, ester bond, 18-membered ring, PyBOP/DMAP/DIEA, CH2Cl2, 1.83 mM, 20.0 °C, 15.0 h): 62.5%

IC50 [1]: < 650 nM
Molecule: CO[C@@H](C)c1ncccc1-c1c2c3cc(ccc3n1[C@H]1C[C@@H](C#N)C1)-c1coc(n1)[C@@H](OCc1ccccn1)[C@H](NC(=O)[C@H]1[C@H](C)[C@@H]1C)C(=O)N1N[C@H](C(=O)OCC(C)(C)C2)C2CC1C2 [Example A1174]

Molecule: tert-butyl ((6^4S,3S,4S,Z)-12-(5-(4-cyclopropylpiperazin-1-yl)-2-((S)-1-methoxyethyl)pyridin-3-yl)-10,10-dimethyl-3-morpholino-5,7-dioxo-11-(2-((tetrahydro-2H-pyran-4-yl)oxy)ethyl)-11H-8-oxa-6^2,6^3-diaza-2(4,2)-thiazola-1(5,3)-indola-6 (2,4)-bicyclo[3.1.1]heptanacycloundecaphane-4-yl) carbamate
ring closure, isolated yield (ester bond, 18-membered ring, EDCI/HOBt/DIEA, CH2Cl2, 4.68 mM, 30.0 °C): 41%

Molecule: CO[C@@H](C)c1ncccc1-c1c2c3cc(ccc3n1CCOC1CCOCC1)-c1csc(n1)[C@@H](N1CCOC[C@@H]1C#N)[C@H](NC(=O)OC(C)(C)C)C(=O)N1CCC[C@H](N1)C(=O)OC(C)(C)C2
ring closure, isolated yield (from CO[C@@H](C)c1ncccc1-c1c(CC(C)(C)O)c2cc(-c3csc([C@H]([C@H](NC(=O)OC(C)(C)C)C(=O)N4CCC[C@@H](C(=O)O)N4)N4CCOC[C@@H]4C#N)n3)ccc2n1CCOC1CCOCC1, ester bond, 18-membered ring, EDCI/HOBt/DIEA, CH2Cl2, 10.4 mM, 25.0 °C, 2.0 h): 31%
